In paper PMC8972196, “A Set of Experimentally Validated Decoys for the Human CC Chemokine Receptor 7 (CCR7) Obtained by Virtual Screening” (Frontiers in Pharmacology, 2022):
Like-named read-outs stand apart in the source and are kept apart here.

Target: T1, human CCR7 (Homo sapiens, UniProt P32248)
T1 construct: expressed in transfected cells
T1 sequence (P32248 25-378): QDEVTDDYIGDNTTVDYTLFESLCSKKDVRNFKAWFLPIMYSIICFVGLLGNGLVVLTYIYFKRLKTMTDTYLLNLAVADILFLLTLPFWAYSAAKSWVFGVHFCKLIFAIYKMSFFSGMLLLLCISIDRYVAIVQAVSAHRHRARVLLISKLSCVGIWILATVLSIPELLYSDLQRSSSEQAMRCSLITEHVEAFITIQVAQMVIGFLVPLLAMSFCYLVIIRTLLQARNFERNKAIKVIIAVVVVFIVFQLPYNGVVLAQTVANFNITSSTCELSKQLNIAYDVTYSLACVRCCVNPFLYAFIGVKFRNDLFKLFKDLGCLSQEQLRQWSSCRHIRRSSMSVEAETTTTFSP
Experiment: CCL19-induced calcium mobilization assay, U87.CD4 cells expressing CCR7
Format: cell-based
Details: for IC50: read-out: IC50 [μM] block CCL19 induced calcium signaling
Description: U87.CD4 cells that stably express either human CCR7, CXCR2, CCR5 or CXCR4 were seeded (20,000 cells/well) in gelatin-coated black-walled polystyrene 96-well plates with clear bottom and incubated overnight at 37°C and 5% CO2. […] Culture medium was removed, and cells were incubated for 45 min at room temperature in the dark. […] Exactly the same protocol was used to record calcium responses in Chinese hamster ovary (CHO)-K1 cells, upon stimulation with adenosine triphosphate (ATP, purchased from Sigma).

[1] = CCL19-induced calcium signaling
[2] = classification of tested compounds as decoy or active
[3] = CCL19 induced calcium signaling
[4] = classification as decoy or active on CCR7

Compound | IC50 [1] | Decoy – 0 Active – 1 [2] | IC50 [3] | Decoy – 0 Active – 1 [4]
O=C([C@@H]1C[C@@H]1c1ccco1)N1CCC[C@H]1Cc1ccc(F)cc1 [C154, O=C([C@@H]1C[C@@H]1c1ccco1)N1CCC[C@H]1Cc1ccc(F)cc1] | > 50 µM | 0 | – | –
COC(=O)c1ccccc1Nc1c(NCc2ccc(OC)cc2)c(=O)c1=O [C011, COC(=O)c1ccccc1Nc1c(NCc2ccc(OC)cc2)c(=O)c1=O] | > 50 µM | 0 | – | –
O=C1NCCN1CCNC(=S)Nc1cc(C(F)(F)F)cc(C(F)(F)F)c1 [C034, FC(F)(F)c1cc(NC(=S)NCCN2CCNC2=O)cc(c1)C(F)(F)F] | > 30 µM | 0 | – | –
COC(=O)c1ccccc1Nc1c(N2CCNC(=O)C2)c(=O)c1=O [C005, COC(=O)c1ccccc1Nc1c(N2CCNC(=O)C2)c(=O)c1=O] | > 50 µM | 0 | – | –
O=C(O[C@@H]1CS(=O)(=O)C[C@@H]1Nc1ccccc1)c1ccccc1 [C123, O=C(O[C@@H]1CS(=O)(=O)C[C@@H]1Nc1ccccc1)c1ccccc1] | > 50 µM | 0 | – | –
COc1ccc(CNc2c(NC(C)c3ccccc3)c(=O)c2=O)cc1OC (centres unmarked) [C014, COc1ccc(CNc2c(NC(C)c3ccccc3)c(=O)c2=O)cc1OC] | > 50 µM | 0 | – | –
CC(=O)N1CCC2(CC1)CC(C(=O)O)N(C(=O)c1ccc(C)c3ccccc13)C2 (centres unmarked) [C212, CC(=O)N1CCC2(CC1)CC(C(=O)[O-])N(C(=O)c1ccc(C)c3ccccc13)C2] | – | – | > 50 µM | 0
C[C@@H](NC(=O)c1nnc(-c2ccc(S(=O)(=O)N(C)C)cc2)o1)c1ccccn1 [C092, C[C@@H](NC(=O)c1nnc(-c2ccc(S(=O)(=O)N(C)C)cc2)o1)c1ccccn1] | > 50 µM | 0 | – | –
Cn1ncc(NC(=S)Nc2ccccc2C(F)(F)F)c1C(N)=O [C037, Cn1ncc(NC(=S)Nc2ccccc2C(F)(F)F)c1C(N)=O] | > 30 µM | 0 | – | –
N=C(Nc1ccc(Br)cc1)C(N)=Nc1ccc(Br)cc1 [C077, NC(=[NH+]c1ccc(Br)cc1)C(=[NH2+])Nc1ccc(Br)cc1] | > 10 µM | 0 | – | –
O=C(c1cn2ccccc2n1)N(CCN1CCCC1)Cc1ccc(Cl)c(Cl)c1 [C280, O=C(c1cn2ccccc2n1)N(CCN1CCCC1)Cc1ccc(Cl)c(Cl)c1] | – | – | > 50 µM | 0
CCOC(=O)NC(=S)Nc1ccc2nsnc2c1 [C044, S=C(NC1=CC2=NSN=C2C=C1)NC(OCC)=O] | > 30 µM | 0 | – | –
CC(=O)c1cccc(NC(=O)NC(c2ccc(C)o2)C(C)(C)C)c1 (centres unmarked) [C062, CC(=O)c1cccc(NC(=O)NC(c2ccc(C)o2)C(C)(C)C)c1] | > 10 µM | 0 | – | –
CC(C)c1ccc(S(=O)(=O)N2CCN(C)CC2c2ccccc2)cc1 (centres unmarked) [C237, CC(C)c1ccc(cc1)S(=O)(=O)N2CC[NH+](CC2c3ccccc3)C] | – | – | > 50 µM | 0
O=S(=O)(NCC(c1ccco1)N1CCc2ccccc21)c1ccc2c(c1)OCCO2 (centres unmarked) [C238, c1ccc2c(c1)CCN2C(CNS(=O)(=O)c3ccc4c(c3)OCCO4)c5ccco5] | – | – | > 50 µM | 0
C[C@H](Nc1c(N[C@H]2C[C@H]3CC[C@@]2(CN2CCCC2)C3(C)C)c(=O)c1=O)c1cccc2ccccc12 [C022, CC1(C)[C@@H]2CC[C@]1(CN3CCCC3)[C@@H](NC(C4=O)=C(N[C@H](C5=CC=CC6=C5C=CC=C6)C)C4=O)C2] | > 50 µM | 0 | – | –
CN(C)[C@@H]1CCCC[C@H]1Nc1c(NCc2cc(C(F)(F)F)cc(C(F)(F)F)c2)c(=O)c1=O [C021, CN(C)[C@@H]1CCCC[C@H]1NC(C2=O)=C(NCC3=CC(C(F)(F)F)=CC(C(F)(F)F)=C3)C2=O] | > 50 µM | 0 | – | –
O=[N+]([O-])c1ccc(C(O)CNC(=S)NCc2ccc3c(c2)OCO3)cc1 (centres unmarked) [C030, OC(CNC(=S)NCc1ccc2OCOc2c1)c1ccc(cc1)[N+]([O-])=O] | > 30 µM | 0 | – | –
CCc1ccc(S(=O)(=O)NC2Cc3cc(C(=O)NC(C)C)nn3C2)cc1 (centres unmarked) [C241, CCc1ccc(cc1)S(=O)(=O)NC2Cc3cc(nn3C2)C(=O)NC(C)C] | – | – | > 50 µM | 0
FC(F)(F)c1ccccc1NC(=S)Nc1ccn(Cc2ccc(Cl)cc2)n1 [C031, FC(F)(F)c1ccccc1NC(=S)Nc1ccn(Cc2ccc(Cl)cc2)n1] | > 30 µM | 0 | – | –
CC1(C)[C@H]2CC[C@@]1(CNc1c(NCc3cc(C(F)(F)F)cc(C(F)(F)F)c3)c(=O)c1=O)[C@H](N1CCCC1)C2 [C019, O=C1C(NC[C@]23CC[C@H](C3(C)C)C[C@H]2N4CCCC4)=C(NCC5=CC(C(F)(F)F)=CC(C(F)(F)F)=C5)C1=O] | > 50 µM | 0 | – | –
CN(C)[C@@H]1CCCC[C@H]1NC(=S)Nc1cc(C(F)(F)F)cc(C(F)(F)F)c1 [C039, S=C(N[C@H]1[C@H](N(C)C)CCCC1)NC2=CC(C(F)(F)F)=CC(C(F)(F)F)=C2] | > 50 µM | 0 | – | –
COc1ccc(CNc2c(NCc3ccc4c(c3)OCO4)c(=O)c2=O)cc1 [C012, COc1ccc(CNc2c(NCc3ccc4c(c3)OCO4)c(=O)c2=O)cc1] | > 50 µM | 0 | – | –
OCc1ccccc1NC(=S)NCc1ccccc1 [C038, OCc1ccccc1NC(=S)NCc1ccccc1] | > 30 µM | 0 | – | –

Continued, values first:

IC50 [1] | Decoy – 0 Active – 1 [2] | IC50 [3] | Decoy – 0 Active – 1 [4] | Compound
– | – | > 50 µM | 0 | O=C(NCC(=O)N1CCCC1c1ccc2c(c1)OCO2)c1cc2ccccc2[nH]1 (centres unmarked) [C285, O=C(NCC(=O)N1CCCC1c1ccc2c(c1)OCO2)c1cc2ccccc2[nH]1]
> 50 µM | 0 | – | – | COC[C@@H](NC1=NS(=O)(=O)c2ccccc21)c1ccc(C)o1 [C134, COC[C@@H](NC1=NS(=O)(=O)c2ccccc21)c1ccc(C)o1]
> 50 µM | 0 | – | – | CC(C)[C@@H]1OCCC[C@@H]1Nc1cc(N2CC[C@H](OCc3ccccn3)C2)ncn1 [C084, CC(C)[C@@H]1OCCC[C@@H]1Nc1cc(N2CC[C@H](OCc3ccccn3)C2)ncn1]
> 50 µM | 0 | – | – | C[C@@H]1CCN(Cc2ccccc2)C[C@H]1Nc1ccc([N+](=O)[O-])c(C(N)=O)c1 [C117, C[C@@H]1CC[N@H+](Cc2ccccc2)C[C@H]1Nc1ccc([N+](=O)[O-])c(C(N)=O)c1]
– | – | > 50 µM | 0 | Cc1noc(C)c1CNC(=O)COc1ccccc1CO [C172, Cc1noc(C)c1CNC(=O)COc1ccccc1CO]
> 50 µM | 0 | – | – | CN(C)C(=O)c1cccc(N[C@H]2CCCN(Cc3cccc(O)c3)C2)n1 [C111, CN(C)C(=O)c1cccc(N[C@H]2CCC[N@H+](Cc3cccc(O)c3)C2)n1]
> 50 µM | 0 | – | – | C[C@H](c1ccccc1)N(C)CC(=O)Nc1cccc(C(=O)N(C)C)c1 [C133, C[C@H](c1ccccc1)[N@@H+](C)CC(=O)Nc1cccc(C(=O)N(C)C)c1]
> 50 µM | 0 | – | – | O=C(NCc1ccccc1)c1cn(C2CN(C(=O)C3CC3)C2)nn1 [C081, O=C(NCc1ccccc1)c1cn(C2CN(C(=O)C3CC3)C2)nn1]
> 50 µM | 0 | – | – | Cc1cccc([C@H](NC(=O)c2cc(-c3ccccc3F)n[nH]2)C2CC2)n1 [C136, Cc1cccc([C@H](NC(=O)c2cc(-c3ccccc3F)n[nH]2)C2CC2)n1]
– | – | > 50 µM | 0 | NC(=O)CN1CC(CCN2CCCC2=O)c2ccccc21 (centres unmarked) [C214, NC(=O)CN1CC(CCN2CCCC2=O)c2ccccc21]
> 50 µM | 0 | – | – | CC(C)[C@@H](NC(=O)CCN1CCCCCC1=O)c1ccccc1 [C112, CC(C)[C@@H](NC(=O)CCN1CCCCCC1=O)c1ccccc1]
– | – | > 50 µM | 0 | COc1cccc(C2CC(O)CN2Cc2nc3ccccc3[nH]2)c1 (centres unmarked) [C279, COc1cccc(C2CC(O)CN2Cc2nc3ccccc3[nH]2)c1]
– | – | > 50 µM | 0 | CC(C)(C(=O)NC1CCC(C(=O)O)C1)c1cccc(F)c1 (centres unmarked) [C210, CC(C)(C(=O)NC1CCC(C(=O)[O-])C1)c1cccc(F)c1]
> 50 µM | 0 | – | – | C[C@@H](CNC(=O)N[C@H]1CCC[C@@H](S(C)(=O)=O)C1)c1cccs1 [C118, C[C@@H](CNC(=O)N[C@H]1CCC[C@@H](S(C)(=O)=O)C1)c1cccs1]
> 50 µM | 0 | – | – | CN(C)C(=O)c1cc(NC(=O)NCC(C)(C)c2ccccc2)ccn1 [C129, CN(C)C(=O)c1cc(NC(=O)NCC(C)(C)c2ccccc2)ccn1]
> 50 µM | 0 | – | – | Cc1cnn(C[C@@H]2CCCN2C(=O)[C@H](C(C)C)n2cncn2)c1 [C143, Cc1cnn(C[C@@H]2CCCN2C(=O)[C@H](C(C)C)n2cncn2)c1]
> 50 µM | 0 | – | – | Cc1nc(CCCC(=O)N[C@H]2CCN(C(C)C)C2=O)cs1 [C090, Cc1nc(CCCC(=O)N[C@H]2CCN(C(C)C)C2=O)cs1]
> 10 µM | 0 | – | – | Cc1ccc(CN(C(=O)CNc2ccc(C(N)=O)c(C)c2)C2CC2)o1 [C053, Cc1ccc(CN(C(=O)CNc2ccc(C(N)=O)c(C)c2)C2CC2)o1]
– | – | > 50 µM | 0 | O=C1CC(C(=O)NC2CCCc3ccccc32)Cc2nc(NC(=O)C3CCC3)sc21 (centres unmarked) [C226, O=C1CC(C(=O)NC2CCCc3ccccc32)Cc2nc(NC(=O)C3CCC3)sc21]
